Data reported in ChEMBL document CHEMBL3813672, “Discovery of anti-cancer activity for benzo[1,2,4]triazin-7-ones: Very strong correlation to pleurotin and thioredoxin reductase inhibition” (Bioorg Med Chem, 2016).
pKi: −log10 of the molar value.

How the values were obtained:
[1] = test system: T47D; experiment: Growth inhibition of human T47D cells incubated for 48 hrs by sulforhodamine B assay; type: functional
[2] = Growth inhibition of human SNB75 cells incubated for 48 hrs by sulforhodamine B assay; type: functional; conditions: SNB-75, 48 h
[3] = Growth inhibition of human OVCAR3 cells incubated for 48 hrs by sulforhodamine B assay; type: functional; conditions: OVCAR-3, 48 h
[4] = test system: NCI/ADR-RES; experiment: Growth inhibition of human NCI/ADR-RES cells incubated for 48 hrs by sulforhodamine B assay; type: functional
[5] = Growth inhibition of human Caki1 cells incubated for 48 hrs by sulforhodamine B assay; type: functional; conditions: CAKI-1, 48 h
[6] = Growth inhibition of human RXF393 cells incubated for 48 hrs by sulforhodamine B assay; type: functional; conditions: RXF 393, 48 h
[7] = test system: MCF7; experiment: Growth inhibition of human MCF7 cells incubated for 48 hrs by sulforhodamine B assay; type: functional; conditions: MCF7, 48 h
[8] = Growth inhibition of human OVCAR4 cells incubated for 48 hrs by sulforhodamine B assay; type: functional; conditions: OVCAR-4, 48 h
[9] = Growth inhibition of human SF539 cells incubated for 48 hrs by sulforhodamine B assay; type: functional; conditions: SF-539, 48 h
[10] = test system: SK-MEL-2; experiment: Growth inhibition of human SK-MEL-2 cells incubated for 48 hrs by sulforhodamine B assay; type: functional; conditions: SK-MEL-2, 48 h
[11] = test system: NCI-H23; experiment: Growth inhibition of human NCI-H23 cells incubated for 48 hrs by sulforhodamine B assay; type: functional; conditions: NCI-H23, 48 h
[12] = test system: HT-29; experiment: Growth inhibition of human HT-29 cells incubated for 48 hrs by sulforhodamine B assay; type: functional; conditions: HT-29, 48 h
[13] = Uncompetitive inhibition of rat liver thioredoxin reductase using DTNB as substrate measured for 50 mins at 5 mins intervals in presence of NADPH by Lineweaver-Burk plot analysis
[14] = Growth inhibition of human LOXIMVI cells incubated for 48 hrs by sulforhodamine B assay; type: functional; conditions: LOX IMVI
[15] = Growth inhibition of human PC3 cells incubated for 48 hrs by sulforhodamine B assay; type: functional; conditions: PC-3, 48 h
[16] = Growth inhibition of human Hs 578T cells incubated for 48 hrs by sulforhodamine B assay; type: functional
[17] = test system: MDA-MB-435; experiment: Growth inhibition of human MDA-MB-435 cells incubated for 48 hrs by sulforhodamine B assay; type: functional; conditions: MDA-MB-435, 48 h
[18] = test system: A549; experiment: Growth inhibition of human A549/ATCC cells incubated for 48 hrs by sulforhodamine B assay; type: functional; conditions: A549, 48 h
[19] = test system: U-251; experiment: Growth inhibition of human U251 cells incubated for 48 hrs by sulforhodamine B assay; type: functional; conditions: U-251, 48 h
[20] = Growth inhibition of human SW620 cells incubated for 48 hrs by sulforhodamine B assay; type: functional; conditions: SW-620, 48 h
[21] = test system: MDA-MB-468; experiment: Growth inhibition of human MDA-MB-468 cells incubated for 48 hrs by sulforhodamine B assay; type: functional; conditions: MDA-MB-468, 48 h
[22] = test system: NCI-H522; experiment: Growth inhibition of human NCI-H522 cells incubated for 48 hrs by sulforhodamine B assay; type: functional; conditions: NCI-H522, 48 h
[23] = test system: ACHN; experiment: Growth inhibition of human ACHN cells incubated for 48 hrs by sulforhodamine B assay; type: functional
[24] = test system: A498; experiment: Growth inhibition of human A498 cells incubated for 48 hrs by sulforhodamine B assay; type: functional; conditions: A498, 48 h
[25] = Growth inhibition of human DU145 cells incubated for 48 hrs by sulforhodamine B assay; type: functional; conditions: DU-145, 48 h
[26] = Selectivity ratio of IC50 for human GM00637 cells to IC50 for human DU145 cells; type: ADME, cell-based; conditions: GM00637 cells versus DU145 cells, read-out: Ratio IC50
[27] = Growth inhibition of human OVCAR8 cells incubated for 48 hrs by sulforhodamine B assay; type: functional; conditions: OVCAR-8, 48 h
[28] = Selectivity ratio of IC50 for human GM00637 cells to IC50 for human MCF7 cells; type: ADME, cell-based; conditions: GM00637 cells versus MCF7 cells, read-out: Ratio IC50
[29] = test system: NCI-H460; experiment: Growth inhibition of human NCI-H460 cells incubated for 48 hrs by sulforhodamine B assay; type: functional; conditions: NCI-H460, 48 h
[30] = test system: SK-MEL-28; experiment: Growth inhibition of human SK-MEL-28 cells incubated for 48 hrs by sulforhodamine B assay; type: functional; conditions: SK-MEL-28, 48 h
[31] = Growth inhibition of human TK10 cells incubated for 48 hrs by sulforhodamine B assay; type: functional; conditions: TK-10, 48 h
[32] = Growth inhibition of human IGROV1 cells incubated for 48 hrs by sulforhodamine B assay; type: functional; conditions: IGROV-1, 48 h
[33] = test system: SK-MEL-5; experiment: Growth inhibition of human SK-MEL-5 cells incubated for 48 hrs by sulforhodamine B assay; type: functional; conditions: SK-MEL-5, 48 h
[34] = read-out: pLC50 (the source's name) (converted)

For `O=c1ccc2nc(C(F)(F)F)nn(-c3ccccc3)c-2c1`, the GI50 [1] was 1.7 µM, the CC50 [1, 34] was > 100 µM and the TGI ([1]; read-out: pTGI (converted)) was 6.61 µM. The GI50 [2] was 13.2 µM, the CC50 [2, 34] was 52.5 µM and the TGI ([2]; read-out: pTGI (converted)) was 26.3 µM. For the same compound, the GI50 [3] was 1.58 µM, the CC50 [3, 34] was 5.5 µM and the TGI ([3]; read-out: pTGI (converted)) was 2.95 µM. For the same compound, the GI50 [4] was 53.7 µM, the CC50 [4, 34] was > 100 µM and the TGI ([4]; read-out: pTGI (converted)) was 64.6 µM. It also gave a GI50 [5] of 1.48 µM, a CC50 [5, 34] of 5.37 µM and a TGI ([5]; read-out: pTGI (converted)) of 2.82 µM. It also gave a GI50 [6] of 1.45 µM, a CC50 [6, 34] of 5.37 µM and a TGI ([6]; read-out: pTGI (converted)) of 2.82 µM. The GI50 [7] was 0.49 µM, the CC50 [7, 34] was > 100 µM and the TGI ([7]; read-out: pTGI (converted)) was 4.07 µM. The GI50 [8] was 1.48 µM, the CC50 [8, 34] was 5.37 µM and the TGI ([8]; read-out: pTGI (converted)) was 2.82 µM. For the same compound, the GI50 [9] was 15.8 µM, the CC50 [9, 34] was 55 µM and the TGI ([9]; read-out: pTGI (converted)) was 29.5 µM. It also gave a GI50 [10] of 3.63 µM, a CC50 [10, 34] of 58.9 µM and a TGI ([10]; read-out: pTGI (converted)) of 15.5 µM. For the same compound, the GI50 [11] was 5.89 µM, the CC50 [11, 34] was 66.1 µM and the TGI ([11]; read-out: pTGI (converted)) was 22.4 µM. For the same compound, the GI50 [12] was 2.63 µM, the CC50 [12, 34] was > 100 µM and the pKi [13] was 6.11. The GI50 [14] was 1.58 µM, the CC50 [14, 34] was 6.61 µM and the TGI ([14]; read-out: pTGI (converted)) was 3.24 µM. For the same compound, the GI50 [15] was 10.7 µM, the CC50 [15, 34] was 52.5 µM and the TGI ([15]; read-out: pTGI (converted)) was 23.4 µM. For the same compound, the GI50 [16] was 12.3 µM, the CC50 [16, 34] was > 100 µM and the TGI ([16]; read-out: pTGI (converted)) was 81.3 µM. For the same compound, the GI50 [17] was 4.57 µM, the CC50 [17, 34] was 40.7 µM and the TGI ([17]; read-out: pTGI (converted)) was 16.6 µM. The GI50 [18] was 19.5 µM, the CC50 [18, 34] was 79.4 µM and the TGI ([18]; read-out: pTGI (converted)) was 38.9 µM. For the same compound, the GI50 [19] was 13.5 µM, the CC50 [19, 34] was 60.3 µM and the TGI ([19]; read-out: pTGI (converted)) was 28.8 µM. It also gave a GI50 [20] of 1.74 µM, a CC50 [20, 34] of 7.94 µM and a TGI ([20]; read-out: pTGI (converted)) of 3.72 µM. For the same compound, the GI50 [21] was 1.07 µM, the CC50 [21, 34] was 8.32 µM and the TGI ([21]; read-out: pTGI (converted)) was 2.95 µM. For the same compound, the GI50 [22] was 1.51 µM, the CC50 [22, 34] was 6.03 µM and the TGI ([22]; read-out: pTGI (converted)) was 3.02 µM. The GI50 [23] was 1.17 µM, the CC50 [23, 34] was 5.13 µM and the TGI ([23]; read-out: pTGI (converted)) was 2.45 µM. It also gave a GI50 [24] of 14.1 µM, a CC50 [24, 34] of 52.5 µM and a TGI ([24]; read-out: pTGI (converted)) of 26.9 µM. It also gave a GI50 [25] of 1.78 µM, a CC50 [25, 34] of 5.62 µM and a TGI ([25]; read-out: pTGI (converted)) of 3.16 µM. The selectivity ratio [26] was 2, the GI50 [27] was 4.17 µM and the CC50 [27, 34] was > 100 µM. For the same compound, the TGI ([27]; read-out: pTGI (converted)) was 33.9 µM, the selectivity ratio [28] was 3 and the GI50 [29] was 17.8 µM. It also gave a CC50 [29, 34] of 74.1 µM, a TGI ([29]; read-out: pTGI (converted)) of 36.3 µM and a GI50 [30] of 1.7 µM. The CC50 [30, 34] was 6.31 µM, the TGI ([30]; read-out: pTGI (converted)) was 3.24 µM and the GI50 [31] was 1.62 µM. The CC50 [31, 34] was 5.89 µM, the TGI ([31]; read-out: pTGI (converted)) was 3.09 µM and the GI50 [32] was 12 µM. The CC50 [32, 34] was 55 µM, the TGI ([32]; read-out: pTGI (converted)) was 25.7 µM and the GI50 [33] was 7.76 µM. For the same compound, the CC50 [33, 34] was 47.9 µM and the TGI ([33]; read-out: pTGI (converted)) was 20.9 µM.
